Recovery, EC50 and Ki data for 32 compounds are collected here from ChEMBL document CHEMBL1135538, “Synthesis of N-glyoxyl prolyl and pipecolyl amides and thioesters and evaluation of their in vitro and in vivo nerve regenerative effects” (J Med Chem, 2002).

Experiment [1] has as its system Mus musculus. In words: Percent recovery of tyrosine hydroxylase immunostaining in mice following 10 mg/kg p.o. administration after lesioning with MPTP. The experiment is classed as functional, organism-based. Set-up: dose 10 mg/kg. To be noted: at 10 mg/kg.
In experiment [2] the test system is Mus musculus. In words: Percent recovery of tyrosine hydroxylase immunostaining after oral administration at dose 10 mg/kg concurrently with MPTP. Format: functional, organism-based. Details: dose 10 mg/kg.
Experiment [3] has as its system Mus musculus. In words: Percent recovery of tyrosine hydroxylase immunostaining after oral administration at dose 10 mg/kg after lesioning with MPTP (post-MPTP). The experiment is classed as functional, organism-based. Details: dose 10 mg/kg.
For experiment [4], the system named is Mus musculus. In words: Percent recovery of tyrosine hydroxylase immunostaining after peroral administration at dose 10 mg/kg after lesioning with MPTP (post-MPTP). Format: functional, organism-based. Details: dose 10 mg/kg.
Experiment [5] is filed under the species Gallus gallus. Description: In vitro promotion of fiber extension (neurite outgrowth) from cultured chick sensory neuron. The experiment is classed as functional. To be noted: read-out: ED50 (the source's name).
For experiment [6], the target named is Peptidyl-prolyl cis-trans isomerase FKBP1A (Homo sapiens, UniProt P62942). In words: Inhibitory activity against FK506 binding protein 12.
For experiment [7], the system named is Mus musculus. In words: Percent recovery of vtyrosine hydroxylase immunostaining after oral administration at dose 10 mg/kg after lesioning with MPTP (post-MPTP). The experiment is classed as functional, organism-based. Details: dose 10 mg/kg.

Peptidyl-prolyl cis-trans isomerase FKBP1A, sequence (P62942 whole entry): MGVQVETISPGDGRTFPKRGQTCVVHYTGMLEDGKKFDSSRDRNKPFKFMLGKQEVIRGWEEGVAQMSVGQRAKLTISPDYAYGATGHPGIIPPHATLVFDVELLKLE

In experiment [1], `CCC(C)(C)C(=O)C(=O)N1CCC[C@H]1C(=O)NCCc1ccccc1` returned a Recovery of 44.1%.

In the case of `CCC(C)(C)C(=O)C(=O)N1CCC[C@H]1C(=O)NC(CCc1ccccc1)CCc1ccccc1`, the Recovery in experiment [1] was determined as 6.9%.

`CCC(C)(C)C(=O)C(=O)N1CCC[C@H]1C(=O)SCCCc1cccnc1` displayed a Recovery in experiment [2] of 31%. On the same count and under the same terms, under `CCC(C)(C)C(=O)C(=O)N1CCC[C@H]1C(=O)SCCCCc1ccccc1` stands 48%. Take `CCC(C)(C)C(=O)C(=O)N1CCC[C@H]1C(=O)NCCCCc1ccccc1`: the Recovery in experiment [1] is 50.1%. Regarding `CCC(C)(C)C(=O)C(=O)N1CCCC[C@H]1C(=O)NCCCCc1ccc(O)cc1`, the Recovery in experiment [1] came out at 60.4%. The same measure, in the same setting: the same measure for `CCC(C)(C)C(=O)C(=O)N1CCCC[C@H]1C(=O)NCCCCc1cccnc1`: 29.4%.

As to `CCC(C)(C)C(=O)C(=O)N1CCC[C@H]1C(=O)SCCCc1ccc(C(F)(F)F)cc1`, the values for the Recovery in experiment [2] and in experiment [3] were 71% and 34%, respectively. Compound `O=C(C(=O)N1CCC[C@H]1C(=O)SCCc1ccccc1)C1CCCC1` displayed a Recovery in experiment [2] of 41%. Compound `CCC(C)(C)C(=O)C(=O)N1CCCC[C@H]1C(=O)SCCc1ccccc1` displayed a Recovery in experiment [2] of 73%. For `CCC(C)(C)C(=O)C(=O)N1CCC[C@H]1C(=O)OCCCc1cccnc1` [GPI-1046], the Recovery in experiment [4] was determined as 35%; in experiment [2], 43%. Besides, the EC50 in experiment [5] was found to be 0.06 nM.

For `CCC(C)(C)C(=O)C(=O)N1CCC[C@H]1C(=O)N(C)CCCc1ccccc1`, the Recovery in experiment [1] came to 20.5%.

In turn, `CCC(C)(C)C(=O)C(=O)N1CCCC[C@H]1C(=O)NCCCCc1ccccc1` registered a Recovery in experiment [1] of 54.1%.

Consider `CCC(C)(C)C(=O)C(=O)N1CCC[C@H]1C(=O)SCCC(c1ccccc1)c1ccccc1`, for which the values for the Recovery in experiment [2] and in experiment [3] were 39% and 37%, respectively. Regarding `CCC(C)(C)C(=O)C(=O)N1CCC[C@H]1C(=O)NC`, the Recovery in experiment [1] is 16.1%. In experiment [2], `O=C(C(=O)N1CCC[C@H]1C(=O)SCCCc1ccccc1)C1CCCCC1` gave a Recovery of 52%. `CCC(C)(C)C(=O)C(=O)N1CCC[C@H]1C(=O)NCCCc1ccc(O)cc1`: the Recovery in experiment [1] is 1.8%. The same measure, in the same setting: under `CCC(C)(C)C(=O)C(=O)N1CCCC[C@H]1C(=O)NCCCCCc1ccccc1` stands 37.4%; under `O=C(C(=O)N1CCCC[C@H]1C(=O)NCCCCc1ccccc1)c1ccccc1`, 18.7%. For the compound `CCC(C)(C)C(=O)C(=O)N1CCC[C@H]1C(=O)SCCCc1ccccc1`, the Recovery in experiment [2] was found to be 72%. Also, in experiment [5], the EC50 was < 0.01 nM.

As for `CCC(C)(C)C(=O)C(=O)N1CCCC[C@H]1C(=O)NCCC(c1ccccc1)c1ccccc1`, the Ki (commonly a dissociation constant, usually derived from enzyme kinetics or from competition with a known ligand) in experiment [6] came to 420 nM. Also, the Recovery in experiment [1] was determined as 41.9%. Regarding `CCC(C)(C)C(=O)C(=O)N1CCC[C@H]1C(=O)SCCCc1ccc2ccccc2c1`, the Recovery in experiment [2] came out at 36%; in experiment [3], 10%. Take `CCC(C)(C)C(=O)C(=O)N1CCCC[C@H]1C(=O)SCCCc1ccccc1`: the Recovery in experiment [7] came out at 30%. As to `CC(C)(C)C(=O)C(=O)N1CCC[C@H]1C(=O)NCCCc1ccccc1`, in experiment [1], the Recovery worked out at 28.1%. On to `CCC(C)(C)C(=O)C(=O)N1CCC[C@H]1C(=O)SCCCc1ccc(OC)cc1`, for which the EC50 in experiment [5] worked out at 0.01 nM.

Compound `CCC(C)(C)C(=O)C(=O)N1CCCC[C@H]1C(=O)NC` showed a Recovery in experiment [1] of 31.6%. On the same count and under the same terms, the same measure for `CC(C)(C)C(=O)C(=O)N1CCCC[C@H]1C(=O)NCCCCc1ccccc1`: 44.9%. In turn, `CCC(C)(C)C(=O)C(=O)N1CCC[C@H]1C(=O)NCCCc1ccccc1` displayed a Ki in experiment [6] of 1100 nM. The same compound came in with a Recovery in experiment [3] of 39%. `CCC(C)(C)C(=O)C(=O)N1CCC[C@H]1C(=O)SCCc1ccccc1`: the Recovery came to 31.4% in experiment [1] and 66% in experiment [2]. In addition, in experiment [5], the EC50 was 0.77 nM. For `CCC(C)(C)C(=O)C(=O)N1CCCC[C@H]1C(=O)SCCC(c1ccccc1)c1ccccc1`, the results for the Recovery in experiment [1] and in experiment [2] were 72% and 81%, respectively.

For `CCC(C)(C)C(=O)C(=O)N1CCCC[C@H]1C(=O)NCCCc1ccccc1`, the Recovery in experiment [1] stood at 65.3%. As to `CCC(C)(C)C(=O)C(=O)N1CCC[C@H]1C(=O)NCCCc1cccnc1`, the affinity in experiment [6], expressed as Ki, was 820 nM. This compound returned a Recovery in experiment [1] of 4.7%.
